Results taken from patent publication US7786257B2, “Signal-1/signal-2 bifunctional peptide inhibitors” (priority 2000, dated 2010).
Where no end group is shown, it is not given here. [ ]: non-standard residue; d: D form. Ahx = NCCCCCC(=O)O

System: MHC-II and ICAM-1 on NOD spleenocytes
Test: Inhibition of biotinylated BPI binding to NOD spleenocytes by monoclonal antibodies to MHC-II or ICAM-1
Parameters: species or system mouse
Conditions: mAb 10-3.62 or 3E2 at 5 μg/ml
Description: Specifically, it was verified that the peptide binds to MHC molecules on live APC. Briefly, spleen cell density-gradient fractions (from mice), or PBL, or APC lines (from humans) were incubated in round bottom 96-well plates with increasing concentrations of individual biotinylated peptides at 37° C., 5% CO2 for 16 hours. Following binding of the BPI to the APC, Avidin-FITC was incubated with the cells on ice for 30 minutes, followed by biotinylated anti-Avidin for 1 hour, then again with Avidin-FITC. For BPI titrations, increasing concentrations (0.1-100 μM) of the biotinylated derivatives in sterile 0.5% BSA-PBS were incubated with the APC for 16 hours as above. […] Three-color analyses used Cy-Chrome or PE-conjugated antibodies to known surface markers of APC that were commercially available. Avidin-FITC and biotinylated anti-Avidin detection of the bound peptide was as previously described in Murray et al., 24 Eur. J. Immunol. 2337-2344 (1994); Murray; 19 Immunology Today 157-163; and Schountz et al., 157 The Journal of Immunology 3893-3901 (1996). […]
However, either purified 10-3.62 (anti-MHC-II) or 3E2 (anti-ICAM-1) were included in the overnight incubation of the spleen cells with the biotinylated BPI. […] Analyses were gated on forward/side scatter dotplots for live lymphocytes and 20,000 events were analyzed for each histogram.

GAD65(208-217)-[Ac-G-Ac-G-Ac]-CD11a (237-247) (EIAPVFVLLE[Ahx]G[Ahx]G[Ahx]ITDGEATDSG) [EGAD-BPI]
BPI binding in presence of monoclonal antibody to MHC-II or ICAM-1: effectively block binding | BPI binding in presence of monoclonal antibody to MHC-II or ICAM-1 (listed as BPI): blocked BPI binding
